Experimental data published in patent publication US10018911B2, “Chemically amplified resist material and resist pattern-forming method” (JSR CORPORATION, priority 2015, dated 2018).

Assay: Absorbance measurement of component (b) and derived sensitizing agent, 0.0001% by mass cyclohexane solution
Format: physicochemical
Experimental: The component (b) and the sensitizing agent derived from the component (b) are shown together in Table 2. With respect to each of the components (b) and the sensitizing agents derived from the components (b), a 0.0001% by mass cyclohexane solution thereof was prepared. The absorbance of the solution prepared thus was measured using cyclohexane as a reference solvent and a spectrophotometer (“V-670” available from JASCO Corporation).
The absorbance was evaluated to be: “transparent” in a case where the measurement value of the absorbance was less than 0.01 over the entire wavelength range of no less than 300 nm and no greater than 450 nm; and “absorbing” in a case where the measurement value of the absorbance was no less than 0.01 at at least one wavelength within the entire wavelength range of no less than 300 nm and no greater than 450 nm.

SMILES	Absorbance (300-450 nm) of (b) component
COc1ccc(C(OC)(OC)c2ccc(OC)cc2)cc1 [Example B-2]	transparent (the measurement value of the absorbance was less than 0.01 over the entire wavelength range of no less than 300 nm and no greater than 450 nm)
COc1ccc(C(O)c2ccc(OC)cc2)cc1 [Example B-1, bis(4-methoxyphenyl)methanol]	transparent (the measurement value of the absorbance was less than 0.01 over the entire wavelength range of no less than 300 nm and no greater than 450 nm)
